# Patent publication US20120289566A1, “COMBINATIONS OF FESOTERODINE AND SALIVARY STIMULANTS FOR THE TREATMENT OF OVERACTIVE BLADDER” (THERAVIDA, INC., priority 2011, published 2012)
# Columns and labels:
# saliva output = settings: 5 mg of pilocarpine; cited from earlier work
# saliva flow = assay: Case study: stimulated saliva output (Parafilm chewing, 2 min) after Toviaz and pilocarpine in a single individual; type: in vivo, human; settings: after the administration of 8 mg Toviaz
# Method: In this study, the effect of fesoterodine (Toviaz®), pilocarpine, the combination of the two, and placebo was measured in separate, yet identical, studies in a single individual.
# The following protocol was for a pilot human study to evaluate the extent of saliva flow rate following the administration of 8 mg Toviaz® capsule and 5 or 7.5 mg pilocarpine HCl tablet after about 2.5 hrs from fesoterodine administration. The subject was a healthy, person. The subject performed the following: • 1. Fast the night before. • 2. No coffee or soda 8 hrs prior to taking the first dose. • 3. Record time voiding and measure urine if possible. • 4. Record extent of dryness of the mouth (Very dry, dry, and not dry). • 5. Record any adverse event. • 6. Chew a 1″×1″ piece of Parafilm (American National Can (Neenah, Wis. 54956) Bar code No. 7-466676999) over 2 minutes. • 7. Collect wetted Parafilm and saliva into a tared container (pre-weighed container). • 8. Measure the amount of saliva collected. • 9. Plot Saliva collected per 2 min time intervals against time.
# The subject fasted overnight, but had 240 mL of water 1 hr prior to dose. The water continued ad lib until 1 hr pre and 1 hr post dose, other than 120 mL with Toviaz® and 120 mL with 5 mg Salagen® tablet. For lunch, the subject consumed a light sandwich. No coffee, soda, or caffeinated or alcoholic beverages was consumed.
smiles,measurement,setting,value
CC[C@@H]1C(=O)OC[C@@H]1Cc1cncn1C [pilocarpine],time of maximum saliva output after administration,saliva output,about 30 minutes
same,time of pilocarpine administration after Toviaz at which best results are obtained,saliva flow,2.3 to 2.5 h
